System: 485368-065-R3-J5-PDC spheroids with HUVEC/MSC, viability
Assay: Anticancer human tumor 485368-065-R3-J5-PDC patient-derived pancreatic carcinoma cell line growth inhibition [RAS]
Conditions: for IC50: curve of first compound; for viability, T/C: stronger effect = lower value
Procedure, shortened: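 Agents were tested in combination matrices in half-log decrements from a top concentration at or near clinical Cmax (10 microM if undetermined). Targets were multi-cell spheroids of tumour lines plus HUVEC and MSC stromal cells.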

[1] = second compound 0.000949 µM, first compound 0.000949 µM
[2] = second compound 0.000949 µM, first compound 0.003 µM
[3] = second compound 0.000949 µM, first compound 0.00949 µM
[4] = second compound 0.000949 µM, first compound 0.03 µM
[5] = second compound 0.000949 µM, first compound 0.0949 µM
[6] = second compound 0.000949 µM, first compound 0.3 µM
[7] = second compound 0.003 µM, first compound 0.000949 µM
[8] = second compound 0.003 µM, first compound 0.003 µM
[9] = second compound 0.003 µM, first compound 0.00949 µM
[10] = second compound 0.003 µM, first compound 0.03 µM
[11] = second compound 0.003 µM, first compound 0.0949 µM
[12] = second compound 0.003 µM, first compound 0.3 µM
[13] = second compound 0.00949 µM, first compound 0.000949 µM
[14] = second compound 0.00949 µM, first compound 0.003 µM
[15] = second compound 0.00949 µM, first compound 0.00949 µM
[16] = second compound 0.00949 µM, first compound 0.03 µM
[17] = second compound 0.00949 µM, first compound 0.0949 µM
[18] = second compound 0.00949 µM, first compound 0.3 µM
[19] = second compound 0.03 µM, first compound 0.000949 µM
[20] = second compound 0.03 µM, first compound 0.003 µM
[21] = second compound 0.03 µM, first compound 0.00949 µM
[22] = second compound 0.03 µM, first compound 0.03 µM
[23] = second compound 0.03 µM, first compound 0.0949 µM
[24] = second compound 0.03 µM, first compound 0.3 µM
[25] = second compound 0.0949 µM, first compound 0.000949 µM
[26] = second compound 0.0949 µM, first compound 0.003 µM
[27] = second compound 0.0949 µM, first compound 0.00949 µM
[28] = second compound 0.0949 µM, first compound 0.03 µM
[29] = second compound 0.0949 µM, first compound 0.0949 µM
[30] = second compound 0.0949 µM, first compound 0.3 µM
[31] = second compound 0.3 µM, first compound 0.000949 µM
[32] = second compound 0.3 µM, first compound 0.003 µM
[33] = second compound 0.3 µM, first compound 0.00949 µM
[34] = second compound 0.3 µM, first compound 0.03 µM
[35] = second compound 0.3 µM, first compound 0.0949 µM
[36] = second compound 0.3 µM, first compound 0.3 µM
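Further: spheroids exposed to agents for seven days before readout.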

Structure (SMILES): CC1(C)CCC(Nc2ncc(C(F)(F)F)c(-c3c[nH]c4c(P(C)(C)=O)c(C#N)ccc34)n2)CN1 (centres undefined) + CCn1c(-c2cccnc2C(C)OC)c2c3cc(ccc31)N1CCOC(CC(NC(=O)C(C(C)C)N(C)C(=O)C3(F)CCN(C(=O)C#CC(C)(C)N(C)C)CC3)C(=O)N3CCCC(N3)C(=O)OCC(C)(C)C2)C1
- IC50 (second compound 0.000949 µM): 9.04 nM
- IC50 (second compound 0.003 µM): 15.7 nM
- IC50 (second compound 0.00949 µM): 8.62 nM
- IC50 (second compound 0.03 µM): 7.35 nM
- IC50 (second compound 0.0949 µM): 13.6 nM
- IC50 (second compound 0.3 µM): 17.6 nM
- viability, T/C [1]: 116%
- viability, T/C [2]: 85.7%
- viability, T/C [3]: 48%
- viability, T/C [4]: 47.1%
- viability, T/C [5]: 43.6%
- viability, T/C [6]: 39.9%
- viability, T/C [7]: 109%
- viability, T/C [8]: 73.9%
- viability, T/C [9]: 61%
- viability, T/C [10]: 40.3%
- viability, T/C [11]: 32.7%
- viability, T/C [12]: 35.9%
- viability, T/C [13]: 107%
- viability, T/C [14]: 86.7%
- viability, T/C [15]: 46.6%
- viability, T/C [16]: 40.9%
- viability, T/C [17]: 42.5%
- viability, T/C [18]: 38.2%
- viability, T/C [19]: 108%
- viability, T/C [20]: 66.1%
- viability, T/C [21]: 47.4%
- viability, T/C [22]: 35.2%
- viability, T/C [23]: 38.3%
- viability, T/C [24]: 45.3%
- viability, T/C [25]: 104%
- viability, T/C [26]: 76.2%
- viability, T/C [27]: 54.9%
- viability, T/C [28]: 39.9%
- viability, T/C [29]: 39%
- viability, T/C [30]: 35.5%
- viability, T/C [31]: 102%
- viability, T/C [32]: 92.3%
- viability, T/C [33]: 55.1%
- viability, T/C [34]: 47%
- viability, T/C [35]: 45.6%
- viability, T/C [36]: 42.6%

Structure (SMILES): CCc1c2c(nc3ccc(O)cc13)-c1cc3c(c(=O)n1C2)COC(=O)[C@]3(O)CC + CCn1c(-c2cccnc2C(C)OC)c2c3cc(ccc31)N1CCOC(CC(NC(=O)C(C(C)C)N(C)C(=O)C3(F)CCN(C(=O)C#CC(C)(C)N(C)C)CC3)C(=O)N3CCCC(N3)C(=O)OCC(C)(C)C2)C1
- IC50 (second compound 0.000949 µM): 2.21 nM
- IC50 (second compound 0.003 µM): 2.28 nM
- IC50 (second compound 0.00949 µM): 2.14 nM
- IC50 (second compound 0.03 µM): 2.27 nM
- IC50 (second compound 0.0949 µM): 2.05 nM
- IC50 (second compound 0.3 µM): 2.01 nM
- viability, T/C [1]: 84.3%
- viability, T/C [2]: 36.9%
- viability, T/C [3]: 17%
- viability, T/C [4]: 7.78%
- viability, T/C [5]: 3.95%
- viability, T/C [6]: 3.3%
- viability, T/C [7]: 84.1%
- viability, T/C [8]: 39.3%
- viability, T/C [9]: 15.1%
- viability, T/C [10]: 6.58%
- viability, T/C [11]: 5.33%
- viability, T/C [12]: 2.88%
- viability, T/C [13]: 76.9%
- viability, T/C [14]: 39.2%
- viability, T/C [15]: 14.8%
- viability, T/C [16]: 8.64%
- viability, T/C [17]: 4.69%
- viability, T/C [18]: 3.02%
- viability, T/C [19]: 88.8%
- viability, T/C [20]: 37.2%
- viability, T/C [21]: 15.9%
- viability, T/C [22]: 8.19%
- viability, T/C [23]: 3.98%
- viability, T/C [24]: 2.16%
- viability, T/C [25]: 88.1%
- viability, T/C [26]: 29.7%
- viability, T/C [27]: 14.8%
- viability, T/C [28]: 6.96%
- viability, T/C [29]: 4.68%
- viability, T/C [30]: 2.71%
- viability, T/C [31]: 82.5%
- viability, T/C [32]: 32.2%
- viability, T/C [33]: 12.6%
- viability, T/C [34]: 9.2%
- viability, T/C [35]: 5.3%
- viability, T/C [36]: 2.3%
